“Also recorded” adds a separate entry of the source.
Target: T1, NgR1(310)-fc (Homo sapiens, UniProt Q9BZR6)
T1 construct: made in house; host or cells: mammalian expression vector (pSMED2)
Test: Analytical ultracentrifugation (sedimentation velocity), wild type receptor
Assay type: binding
Details: ganglioside 0 to 48 μM (FIG. 3A-C)
From the text: Human Nogo Receptor 1 (NgR1)(310)-fc point mutants (FRG-1 (R151E); FRG-2 (R279E); FRG-3 (R199E), and FRG-4 (R151E/R279E/R199E)) were constructed by Genewiz (North Brunswick, N.J.) using their site-directed mutagenesis technology. The template used to construct all the described mutants was wild type human NgR1(310)-fc (SEQ ID NO:59), which was generated by fusing a nucleotide sequence corresponding to the first 310 amino acid of Human Nogo Receptor 1 to a human Fc fragment in a mammalian expression vector (the sequence of wild type NgR1(310)-fc and the expression vector is set forth in SEQ ID NO:60 and a schematic of the expression vector is shown in FIG. 11). […]
Sedimentation velocity experiments were performed on a Beckman XLI/XLA analytical ultracentrifuge. […] Scans were recorded at 20° C. with a rotor speed of 35,000 rpm, and the signal was detected at 230 nm with a spacing of 0.006 in the continuous mode. Sedimentation profiles were analyzed by the program Sedfit (Schuck (2000) Biophys. J. 78:1606-19) to obtain the sedimentation coefficient distributions. The solvent density (1.006) and partial specific volume (0.72) were calculated using the program Sednterp (Laue et al. (1992) Analytical Ultracentrifugation in Biochemistry and Polymer Science (Harding, S. E., Towe, A. J. and Horton, J. C., eds.) pp. 90-125, Royal Society of Chemistry, Cambridge, U.K). […]

T1 sequence (Q9BZR6 with tags, fused parts or gaps limits assumed): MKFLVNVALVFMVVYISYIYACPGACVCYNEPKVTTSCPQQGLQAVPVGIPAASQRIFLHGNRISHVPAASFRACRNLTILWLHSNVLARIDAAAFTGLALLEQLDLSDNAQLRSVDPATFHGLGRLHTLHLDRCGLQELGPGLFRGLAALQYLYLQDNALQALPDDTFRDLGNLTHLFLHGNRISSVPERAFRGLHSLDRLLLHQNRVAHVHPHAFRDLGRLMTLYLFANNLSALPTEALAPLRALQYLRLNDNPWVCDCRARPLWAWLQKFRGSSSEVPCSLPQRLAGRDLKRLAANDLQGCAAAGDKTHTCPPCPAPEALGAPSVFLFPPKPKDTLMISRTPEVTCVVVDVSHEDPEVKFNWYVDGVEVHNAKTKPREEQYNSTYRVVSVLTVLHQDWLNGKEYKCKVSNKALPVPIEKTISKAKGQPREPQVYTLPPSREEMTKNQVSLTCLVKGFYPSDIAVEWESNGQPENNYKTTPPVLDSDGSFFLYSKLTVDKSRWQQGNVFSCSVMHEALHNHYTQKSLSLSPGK

asialo-GM1
interaction with NgR1(310)-fc (shift of sedimentation coefficient): did not interact; also recorded: No change in sedimentation coefficient
